# Data reported in ChEMBL document CHEMBL1201862, “PubChem BioAssay data set” (2004).
# The source made the active and inactive calls.
# Assays:
# [1] = biological target: T1, Calpain-2 catalytic subunit (Sus scrofa, UniProt P43367); assay: pig calpain II inhibitor potency, dose response, biochemical, fluorogenic peptide substrate (AID 1420); type: functional
# T1 sequence (P43367 whole entry): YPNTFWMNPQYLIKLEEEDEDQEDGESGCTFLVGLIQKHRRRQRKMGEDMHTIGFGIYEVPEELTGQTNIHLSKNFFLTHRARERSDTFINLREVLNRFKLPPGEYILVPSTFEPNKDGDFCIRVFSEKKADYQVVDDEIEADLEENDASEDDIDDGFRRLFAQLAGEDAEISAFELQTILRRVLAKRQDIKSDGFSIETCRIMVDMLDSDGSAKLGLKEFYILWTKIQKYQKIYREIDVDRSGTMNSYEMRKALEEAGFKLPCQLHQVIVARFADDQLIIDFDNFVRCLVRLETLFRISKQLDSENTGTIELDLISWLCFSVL
# [2] = inhibitors of HIV Env-driven cell fusion, dose response, cherry-pick (AID 652057); type: functional, cell-based
# [3] = ZM109 Env clade C HIV-1 fusion inhibitors, dose response, HeLa effector, CEM target cells, luciferase, cherry-pick (AID 652058); type: functional, cell-based
# [4] = off-target signal loss in HeLa-CEM21 co-culture – HeLa F-luc CTL cells, cherry-picked, counter-screen for HIV-1 Env fusion inhibitor project, dose response (AID 652040); type: functional, cell-based;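 also: potency for signal decrease marking cytotoxic or nonspecific inhibition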
# [5] = inhibitors of clade B AD8 Env fusion, dose response, cell-based, cherry-pick (AID 652062); type: functional;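 also: luciferase signal from cell-cell fusion driven by HIV-1 clade B AD8 Env; potency is for inhibitors of fusion seen as a drop in luminescence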
# Cytochrome P450 2D6 = Cytochrome P450 2D6 (Homo sapiens, UniProt P10635);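 also: CYP2D6 member of a cytochrome P450 panel assay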
# Cytochrome P450 2C9 = Cytochrome P450 2C9 (Homo sapiens, UniProt P11712)
# [6] = biological target: T2, Endoribonuclease toxin MazF (Escherichia coli K-12, UniProt P0AE70); assay: MazF toxin RNase activators, dose response, biochemical, fluorescence, single-stranded RNA substrate, uHTS hits (AID 588481); type: functional
# T2 sequence (P0AE70 whole entry): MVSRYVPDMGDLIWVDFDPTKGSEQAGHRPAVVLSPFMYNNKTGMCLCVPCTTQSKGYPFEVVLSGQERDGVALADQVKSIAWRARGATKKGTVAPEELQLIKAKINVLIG
# [7] = biological target: T2, Endoribonuclease toxin MazF; assay: fluorescent RNA oligo signal without MazF, dose response, counter-screen for MazEF activator project, biochemical, fluorescence, single-stranded RNase substrate (AID 588502); type: functional
# [8] = biological target: T3, Corticotropin-releasing factor receptor 2/Corticotropin-releasing factor-binding protein (Homo sapiens, UniProt P24387+Q13324); assay: Dose Response confirmation of uHTS hits for small molecule antagonists of the CRF-binding protein and CRF-R2 receptor complex.; type: functional; details: read-out: IC50_Mean
# T3 sequence (Q13324 whole entry): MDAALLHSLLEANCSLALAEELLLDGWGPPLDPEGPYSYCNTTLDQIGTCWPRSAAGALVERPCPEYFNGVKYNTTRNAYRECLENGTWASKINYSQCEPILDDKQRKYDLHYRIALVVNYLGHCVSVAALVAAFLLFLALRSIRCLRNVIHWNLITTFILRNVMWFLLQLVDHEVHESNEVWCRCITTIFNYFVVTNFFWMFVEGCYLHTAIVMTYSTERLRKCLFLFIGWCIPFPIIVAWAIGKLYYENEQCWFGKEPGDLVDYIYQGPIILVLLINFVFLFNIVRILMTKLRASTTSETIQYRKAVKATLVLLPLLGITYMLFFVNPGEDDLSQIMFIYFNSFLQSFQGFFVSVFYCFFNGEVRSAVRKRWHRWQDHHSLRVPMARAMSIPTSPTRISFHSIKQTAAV
# T3 sequence (P24387 whole entry): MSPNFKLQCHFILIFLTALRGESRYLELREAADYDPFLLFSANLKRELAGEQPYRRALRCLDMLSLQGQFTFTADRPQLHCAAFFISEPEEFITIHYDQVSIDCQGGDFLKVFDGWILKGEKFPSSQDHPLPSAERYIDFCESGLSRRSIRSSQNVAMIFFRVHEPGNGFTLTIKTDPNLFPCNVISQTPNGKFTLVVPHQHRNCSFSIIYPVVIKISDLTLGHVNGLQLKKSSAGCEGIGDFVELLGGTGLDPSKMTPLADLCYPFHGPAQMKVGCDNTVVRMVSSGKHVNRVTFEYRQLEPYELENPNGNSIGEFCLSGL
# [9] = biological target: T3, Corticotropin-releasing factor receptor 2/Corticotropin-releasing factor-binding protein; assay: activators of CRF receptor 2 with binding protein – uHTS hits, confirmation (AID 602473); type: functional; details: read-out: EC50_Mean
# [10] = HeLa cell cytotoxicity, dose response, cytotoxicity control for MgcRacGAP inhibitor project (AID 624300); type: functional
# [11] = biological target: T4, Rac GTPase-activating protein 1 (Homo sapiens, UniProt Q9H0H5); assay: MgcRacGAP GTPase-activating activity inhibitors, confirmation, biochemical, ADP Hunter fluorescence, primary and confirmatory (AID 624330); type: functional
# T4 sequence (Q9H0H5 whole entry): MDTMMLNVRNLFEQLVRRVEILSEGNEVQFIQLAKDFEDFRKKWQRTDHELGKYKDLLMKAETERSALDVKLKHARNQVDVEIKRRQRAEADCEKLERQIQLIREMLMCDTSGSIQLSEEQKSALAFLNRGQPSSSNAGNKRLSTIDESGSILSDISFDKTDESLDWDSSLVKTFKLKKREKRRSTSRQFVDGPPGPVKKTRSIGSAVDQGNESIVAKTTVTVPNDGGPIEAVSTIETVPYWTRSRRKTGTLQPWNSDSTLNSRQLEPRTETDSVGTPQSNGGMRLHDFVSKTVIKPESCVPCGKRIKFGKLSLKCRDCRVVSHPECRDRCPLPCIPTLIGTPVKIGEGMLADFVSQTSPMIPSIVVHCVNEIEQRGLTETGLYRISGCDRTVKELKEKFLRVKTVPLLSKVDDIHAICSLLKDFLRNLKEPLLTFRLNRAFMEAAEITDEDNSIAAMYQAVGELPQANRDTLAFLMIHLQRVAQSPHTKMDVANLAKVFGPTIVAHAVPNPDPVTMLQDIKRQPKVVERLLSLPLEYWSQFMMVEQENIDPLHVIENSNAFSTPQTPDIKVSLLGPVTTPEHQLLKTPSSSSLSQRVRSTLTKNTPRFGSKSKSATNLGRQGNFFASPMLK
# [12] = biological target: T5, Microphthalmia-associated transcription factor (Homo sapiens, UniProt O75030); assay: TRPM1 promoter luciferase signal decrease, dose response, MITF inhibitor project, cell-based, SK-MEL-5, cherry-picked, set 3 (AID 493073); type: functional
# T5 sequence (O75030 whole entry): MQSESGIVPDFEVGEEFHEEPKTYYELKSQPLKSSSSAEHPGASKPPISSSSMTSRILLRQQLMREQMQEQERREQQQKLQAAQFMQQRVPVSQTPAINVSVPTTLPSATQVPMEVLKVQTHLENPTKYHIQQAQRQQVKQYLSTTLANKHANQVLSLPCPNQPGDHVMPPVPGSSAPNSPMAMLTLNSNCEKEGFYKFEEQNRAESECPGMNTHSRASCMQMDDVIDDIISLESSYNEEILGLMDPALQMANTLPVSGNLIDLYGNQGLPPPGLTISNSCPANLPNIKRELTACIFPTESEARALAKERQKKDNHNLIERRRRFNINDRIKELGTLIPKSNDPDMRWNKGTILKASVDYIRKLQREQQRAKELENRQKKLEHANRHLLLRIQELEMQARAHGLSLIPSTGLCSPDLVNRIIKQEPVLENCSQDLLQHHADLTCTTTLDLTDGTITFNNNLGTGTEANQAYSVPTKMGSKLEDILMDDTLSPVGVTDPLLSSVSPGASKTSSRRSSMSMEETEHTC
# [13] = biological target: Dual specificity tyrosine-phosphorylation-regulated kinase 1A (Rattus norvegicus, UniProt Q63470); type: biochemical, Homo sapiens
# Beta-galactosidase = Beta-galactosidase (Escherichia coli, UniProt Q8VNN2); assay: PubChem AID 485352; type: functional
# [14] = biological target: T6, Type-1 angiotensin II receptor (Homo sapiens, UniProt P30556); assay: AT1 receptor antagonists, dose response, selectivity assay for APJ receptor antagonist project, cell-based, uHTS hits (AID 463214); type: functional;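 also: antagonist potency against angiotensin II stimulated AT1 response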
# T6 sequence (P30556 whole entry): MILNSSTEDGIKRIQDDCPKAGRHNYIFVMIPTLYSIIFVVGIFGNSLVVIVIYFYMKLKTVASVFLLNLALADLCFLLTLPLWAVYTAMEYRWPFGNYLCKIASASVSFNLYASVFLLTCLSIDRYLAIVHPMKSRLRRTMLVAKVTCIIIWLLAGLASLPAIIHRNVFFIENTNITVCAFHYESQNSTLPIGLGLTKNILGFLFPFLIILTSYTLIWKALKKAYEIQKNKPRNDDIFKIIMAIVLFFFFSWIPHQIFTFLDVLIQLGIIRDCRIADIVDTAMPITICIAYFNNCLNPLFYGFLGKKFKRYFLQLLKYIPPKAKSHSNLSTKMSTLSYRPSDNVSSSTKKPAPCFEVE
# [15] = tested on: Streptococcus sp. 'group A'; assay: growth inhibition of control SK(-) GAS strain, dose response, counter-screen for streptokinase expression inhibitor project, luminescence, kanamycin, BacTiterGlo, confirmation (AID 1900); type: functional, organism-based
# Streptokinase A = biological target: T7, Streptokinase A (Streptococcus pyogenes serotype M1, UniProt P10520); assay: S. pyogenes streptokinase expression inhibitors, potency, dose response, plasminogen activation absorbance, OD405 (AID 1914); type: functional, Streptococcus pyogenes M1 GAS;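 also: secreted streptokinase activity via plasminogen activation per viability signal from cell pellet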
# T7 sequence (P10520 whole entry): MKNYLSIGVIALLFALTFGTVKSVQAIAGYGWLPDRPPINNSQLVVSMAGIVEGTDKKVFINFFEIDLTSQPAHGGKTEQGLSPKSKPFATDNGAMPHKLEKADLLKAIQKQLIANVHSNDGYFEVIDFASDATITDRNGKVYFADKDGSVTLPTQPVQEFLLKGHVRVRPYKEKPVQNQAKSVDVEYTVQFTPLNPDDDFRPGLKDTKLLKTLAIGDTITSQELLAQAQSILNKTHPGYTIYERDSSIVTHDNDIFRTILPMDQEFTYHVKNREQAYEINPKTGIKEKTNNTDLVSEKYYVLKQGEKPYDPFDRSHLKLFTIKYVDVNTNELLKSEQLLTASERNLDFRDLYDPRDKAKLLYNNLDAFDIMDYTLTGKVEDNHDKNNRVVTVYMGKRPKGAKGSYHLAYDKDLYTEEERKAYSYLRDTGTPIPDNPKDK
# Streptococcus = assay: Group A Streptococcus viability loss, dose response, counter-screen for streptokinase expression inhibitor project, luminescence, BacTiterGlo (AID 1915); type: functional, organism-based;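 also: potency for reduction of bacterial viability or growth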
# Nonstructural protein 1 = Nonstructural protein 1 (Influenza A virus, UniProt Q194T2); type: functional, Influenza A virus (A/California/07/2009(H1N1))
# Chain of Nonstructural protein 1 (Q194T2 whole entry): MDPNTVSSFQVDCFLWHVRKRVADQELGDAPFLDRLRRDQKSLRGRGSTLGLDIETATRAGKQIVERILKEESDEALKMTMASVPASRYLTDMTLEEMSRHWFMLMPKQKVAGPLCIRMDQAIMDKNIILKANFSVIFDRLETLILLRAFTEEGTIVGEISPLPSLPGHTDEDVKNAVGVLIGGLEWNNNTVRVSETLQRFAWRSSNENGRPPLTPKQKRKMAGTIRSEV
# [16] = biological target: Ras and Rab interactor 1/Tyrosine-protein kinase ABL1 (Homo sapiens, UniProt P00519+Q13671); type: functional;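 also: biochemical TR-FRET dose-response test measuring inhibition of binding between Rin1 and Abl proteins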
# Chain of Ras and Rab interactor 1/Tyrosine-protein kinase ABL1 (P00519 whole entry): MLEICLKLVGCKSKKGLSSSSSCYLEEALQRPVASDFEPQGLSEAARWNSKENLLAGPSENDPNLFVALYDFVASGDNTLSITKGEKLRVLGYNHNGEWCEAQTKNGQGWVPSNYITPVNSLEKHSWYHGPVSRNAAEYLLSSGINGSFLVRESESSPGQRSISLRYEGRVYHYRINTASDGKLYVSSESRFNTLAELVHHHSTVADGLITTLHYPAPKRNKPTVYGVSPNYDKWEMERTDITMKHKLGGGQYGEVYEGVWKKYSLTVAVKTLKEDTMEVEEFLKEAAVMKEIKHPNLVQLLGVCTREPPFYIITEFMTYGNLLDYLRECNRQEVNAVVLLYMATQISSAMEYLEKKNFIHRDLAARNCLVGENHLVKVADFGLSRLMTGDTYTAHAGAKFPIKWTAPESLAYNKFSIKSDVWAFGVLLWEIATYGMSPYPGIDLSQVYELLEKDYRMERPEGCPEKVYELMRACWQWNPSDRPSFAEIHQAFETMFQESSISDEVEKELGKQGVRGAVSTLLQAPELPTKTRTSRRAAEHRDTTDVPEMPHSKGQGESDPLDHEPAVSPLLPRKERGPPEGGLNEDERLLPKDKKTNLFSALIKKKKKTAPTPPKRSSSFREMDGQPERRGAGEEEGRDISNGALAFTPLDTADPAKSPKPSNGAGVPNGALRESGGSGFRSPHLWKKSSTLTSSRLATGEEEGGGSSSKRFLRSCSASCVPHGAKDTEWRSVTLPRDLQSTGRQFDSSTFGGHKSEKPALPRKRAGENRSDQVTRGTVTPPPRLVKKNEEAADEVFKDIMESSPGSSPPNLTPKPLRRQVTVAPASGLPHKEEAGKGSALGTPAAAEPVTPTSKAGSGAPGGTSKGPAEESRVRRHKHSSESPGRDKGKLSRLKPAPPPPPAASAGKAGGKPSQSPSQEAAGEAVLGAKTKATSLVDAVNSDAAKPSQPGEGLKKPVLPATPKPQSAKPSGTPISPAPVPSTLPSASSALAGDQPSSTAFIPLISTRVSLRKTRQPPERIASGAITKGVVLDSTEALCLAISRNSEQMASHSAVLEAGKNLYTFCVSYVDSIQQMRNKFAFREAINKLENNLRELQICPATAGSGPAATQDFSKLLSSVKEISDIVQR
# Chain of Ras and Rab interactor 1/Tyrosine-protein kinase ABL1 (Q13671 whole entry): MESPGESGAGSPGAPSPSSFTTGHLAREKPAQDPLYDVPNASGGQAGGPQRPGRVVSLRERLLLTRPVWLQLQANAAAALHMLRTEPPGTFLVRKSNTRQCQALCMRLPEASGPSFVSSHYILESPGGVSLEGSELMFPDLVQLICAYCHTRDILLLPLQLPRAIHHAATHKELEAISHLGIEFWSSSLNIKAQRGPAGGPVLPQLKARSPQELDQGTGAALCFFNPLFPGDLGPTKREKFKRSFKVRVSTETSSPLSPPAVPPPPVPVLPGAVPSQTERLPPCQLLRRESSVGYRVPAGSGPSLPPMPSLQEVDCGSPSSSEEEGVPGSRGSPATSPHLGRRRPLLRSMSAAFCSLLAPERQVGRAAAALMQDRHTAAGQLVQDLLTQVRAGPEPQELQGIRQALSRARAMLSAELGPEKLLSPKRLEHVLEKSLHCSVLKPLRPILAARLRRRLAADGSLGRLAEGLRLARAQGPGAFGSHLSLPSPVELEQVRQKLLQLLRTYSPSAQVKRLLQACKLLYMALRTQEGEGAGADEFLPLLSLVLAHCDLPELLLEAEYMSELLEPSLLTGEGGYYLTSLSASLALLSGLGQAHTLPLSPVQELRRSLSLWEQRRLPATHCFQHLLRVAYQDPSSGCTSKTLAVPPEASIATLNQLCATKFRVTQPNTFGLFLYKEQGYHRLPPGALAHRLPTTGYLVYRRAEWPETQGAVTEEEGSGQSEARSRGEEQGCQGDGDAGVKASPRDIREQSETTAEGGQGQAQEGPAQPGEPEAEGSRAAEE
# cells [17] = type: functional, cell-based
# cells [18] = type: functional, cell-based; remark: listed apart in the source
# [19] = microbe, parasite or virus in culture; type: functional; details: Mycobacterium tuberculosis
# Fatty acid synthase [20] = biological target: T8, Fatty acid synthase (Homo sapiens, UniProt P49327); assay: FAS thioesterase domain inhibitors, dose response, biochemical, endpoint fluorescence intensity, uHTS hits (AID 624327); type: functional;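 also: fluorescence from hydrolysis of an O-methyl fluorescein acyl ester substrate by the enzyme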
# T8 sequence (P49327 whole entry, the tested form may be a part): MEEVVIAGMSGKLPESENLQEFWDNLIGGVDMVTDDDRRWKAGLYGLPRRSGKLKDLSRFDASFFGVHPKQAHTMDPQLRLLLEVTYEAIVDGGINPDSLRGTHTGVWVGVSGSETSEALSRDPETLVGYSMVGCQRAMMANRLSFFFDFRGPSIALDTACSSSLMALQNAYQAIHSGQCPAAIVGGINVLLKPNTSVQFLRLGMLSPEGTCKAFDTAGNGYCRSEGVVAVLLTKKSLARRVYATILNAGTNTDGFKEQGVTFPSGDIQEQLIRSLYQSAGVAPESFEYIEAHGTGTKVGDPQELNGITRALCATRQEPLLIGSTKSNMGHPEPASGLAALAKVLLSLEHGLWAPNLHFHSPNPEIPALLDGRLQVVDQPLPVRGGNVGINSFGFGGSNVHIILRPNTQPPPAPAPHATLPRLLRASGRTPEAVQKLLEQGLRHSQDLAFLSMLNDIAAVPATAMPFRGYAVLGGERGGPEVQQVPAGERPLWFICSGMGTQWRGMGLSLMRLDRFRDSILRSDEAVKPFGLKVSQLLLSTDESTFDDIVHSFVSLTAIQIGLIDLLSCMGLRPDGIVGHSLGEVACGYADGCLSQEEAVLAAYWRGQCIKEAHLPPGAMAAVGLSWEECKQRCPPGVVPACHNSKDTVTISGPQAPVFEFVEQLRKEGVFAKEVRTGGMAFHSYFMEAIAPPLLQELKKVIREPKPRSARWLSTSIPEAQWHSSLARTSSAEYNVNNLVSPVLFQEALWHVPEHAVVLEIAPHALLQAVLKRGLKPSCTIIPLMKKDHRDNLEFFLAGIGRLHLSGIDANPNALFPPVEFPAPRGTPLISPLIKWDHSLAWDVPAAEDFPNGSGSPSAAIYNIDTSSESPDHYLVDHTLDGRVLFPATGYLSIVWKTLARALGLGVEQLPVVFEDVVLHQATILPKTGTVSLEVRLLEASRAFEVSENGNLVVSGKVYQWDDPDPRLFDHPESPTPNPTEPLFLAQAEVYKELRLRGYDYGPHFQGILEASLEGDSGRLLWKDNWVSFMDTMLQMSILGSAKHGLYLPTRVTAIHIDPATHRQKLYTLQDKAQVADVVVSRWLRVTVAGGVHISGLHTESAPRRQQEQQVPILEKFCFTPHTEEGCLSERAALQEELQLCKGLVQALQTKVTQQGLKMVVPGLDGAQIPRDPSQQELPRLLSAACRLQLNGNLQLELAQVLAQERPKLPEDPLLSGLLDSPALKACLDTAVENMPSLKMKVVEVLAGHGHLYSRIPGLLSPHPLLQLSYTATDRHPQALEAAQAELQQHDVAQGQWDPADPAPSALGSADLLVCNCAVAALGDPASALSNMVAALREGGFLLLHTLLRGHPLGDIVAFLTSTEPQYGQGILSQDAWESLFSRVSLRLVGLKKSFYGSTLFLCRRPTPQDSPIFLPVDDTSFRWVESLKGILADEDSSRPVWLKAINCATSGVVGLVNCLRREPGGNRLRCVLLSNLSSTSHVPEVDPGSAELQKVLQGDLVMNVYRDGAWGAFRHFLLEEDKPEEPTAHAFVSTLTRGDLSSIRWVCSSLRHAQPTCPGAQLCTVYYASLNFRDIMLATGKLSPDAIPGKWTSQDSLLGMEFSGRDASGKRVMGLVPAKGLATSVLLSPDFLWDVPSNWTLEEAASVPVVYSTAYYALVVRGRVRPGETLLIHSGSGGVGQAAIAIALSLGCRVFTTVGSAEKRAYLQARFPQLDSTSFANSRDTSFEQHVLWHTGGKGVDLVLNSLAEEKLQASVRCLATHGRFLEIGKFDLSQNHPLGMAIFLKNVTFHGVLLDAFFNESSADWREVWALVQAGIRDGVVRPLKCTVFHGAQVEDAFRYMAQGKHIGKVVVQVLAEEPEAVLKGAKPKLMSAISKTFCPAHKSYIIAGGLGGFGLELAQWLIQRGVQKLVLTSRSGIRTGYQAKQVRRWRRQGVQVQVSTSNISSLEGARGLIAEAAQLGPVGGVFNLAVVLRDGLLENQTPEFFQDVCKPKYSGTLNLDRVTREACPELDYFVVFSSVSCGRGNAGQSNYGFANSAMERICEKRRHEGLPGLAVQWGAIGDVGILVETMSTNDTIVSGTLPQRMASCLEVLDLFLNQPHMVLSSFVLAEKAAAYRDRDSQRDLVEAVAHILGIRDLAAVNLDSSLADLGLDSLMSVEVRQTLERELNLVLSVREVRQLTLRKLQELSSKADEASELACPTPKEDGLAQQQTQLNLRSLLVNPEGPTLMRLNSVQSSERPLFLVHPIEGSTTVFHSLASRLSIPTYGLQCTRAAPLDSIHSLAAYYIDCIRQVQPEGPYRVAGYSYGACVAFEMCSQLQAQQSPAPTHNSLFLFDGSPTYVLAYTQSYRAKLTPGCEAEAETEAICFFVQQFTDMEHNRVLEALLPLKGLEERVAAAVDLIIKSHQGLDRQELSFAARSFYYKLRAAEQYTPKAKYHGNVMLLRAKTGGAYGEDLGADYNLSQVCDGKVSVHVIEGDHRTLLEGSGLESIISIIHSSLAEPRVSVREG
# Fatty acid synthase [21] = biological target: T8, Fatty acid synthase; assay: FAS thioesterase domain inhibitors, dose response, biochemical, kinetic fluorescence intensity (AID 624326); type: functional;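 also: rate of fluorescence rise from hydrolysis of a fluorogenic O-methyl fluorescein ester substrate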
smiles,measurement,setting,value
CCC(C(=O)c1ccccc1)N(C(=O)c1ccccc1Cl)N1C(=O)C2C3C=CC(C3)C2C1=O (stereo unspecified),IC50,[1],24.3 µM (not active)
same,AC50,[2],4.55 µM (active)
same,AC50,[3],6.01 µM (active)
same,AC50,[4],7.95 µM (active)
same,AC50,[5],27.5 µM (active)
same,AC50,Cytochrome P450 2D6,7.08 µM (inconclusive)
same,AC50,Cytochrome P450 2C9,10 µM (inconclusive)
Cc1ccccc1Cn1cccc1/C=C1/C(=N)N2C=CSC2=NC1=O,EC50,[6],> 99 µM (inactive)
same,EC50,[7],> 99 µM (inactive)
same,IC50,[8],> 47.1 µM (inactive)
same,EC50,[9],> 53 µM (inactive)
Cc1ccc(-c2cnc(NCc3cc4c(cc3[N+](=O)[O-])OCO4)n2C)cc1C,CC50,[10],100 µM (active)
same,IC50,[11],77.6 µM (active)
CCOC(=O)CSC1=NC(=O)/C(=C/c2ccc(OC)cc2)S1,AC50,[12],3.98 µM (active)
same,AC50,[13],0.395 µM (active)
CC1(C)CC2(CC(c3ccccc3F)c3cc(Cl)c(O)cc3O2)NC(=S)N1 (stereo unspecified),EC50,Beta-galactosidase,> 40 µM (inactive)
same,IC50,[14],> 40 µM (not active)
CCSc1nnc(NC(=O)c2ccccn2)s1,EC50,[15],6.34 µM (active)
same,EC50,Beta-galactosidase,> 40 µM (inactive)
same,EC50,Streptokinase A,> 150 µM (not active)
same,IC50,[14],16.8 µM (active)
same,EC50,Streptococcus,15.3 µM (active)
same,IC50,Nonstructural protein 1,10.6 µM (active)
CC(=O)NC12CC3CC(C1)CC(C(=O)Nc1nc4ccc(F)cc4s1)(C3)C2,AC50,[13],2.64 µM (active)
C[C@@H]1CCCCO[C@@H](CN(C)S(=O)(=O)c2cccs2)[C@@H](C)CN([C@H](C)CO)C(=O)c2cc(NS(=O)(=O)c3ccccc3)ccc2O1,IC50,[16],1.27 µM (active)
CCOC(=O)/C(=N\Nc1ccc(C(C)=O)cc1)c1csc(Nc2ccccc2)n1,EC50,[6],> 99 µM (inactive)
same,EC50,[7],38.1 µM (inactive)
same,EC50,[9],18.3 µM (active)
CCCOc1ccc(/C=N/NC(=O)CSc2ccccn2)cc1OC,EC50,cells [17],> 350 µM (not active)
same,EC50,cells [18],> 350 µM (not active)
same,IC50,[16],12 µM (inactive)
COc1cc(/C=N/N(C)c2ccccc2)cc(Cl)c1O,CC50,[19],> 40 µM (active)
same,IC50,Fatty acid synthase [20],4.5 µM (active)
same,CC50,[10],100 µM (active)
same,IC50,[11],38.2 µM (active)
same,IC50,Fatty acid synthase [21],5.46 µM (active)
